According to patent US11291750B2, “Hydrogel condom” (THE TEXAS A & M UNIVERSITY SYSTEM, priority 2016, dated 2022):
Values after ≈ are worked out from the molar mass of the structure shown.

Columns and labels:
[1] = Aqueous solubility of quercetin without and with sulfated beta-cyclodextrin (UV absorbance at 375 nm); type: physicochemical; settings: aqueous sulfated beta-cyclodextrin solution, aqueous with cosolvent or surfactant or cyclodextrin
Description: FIG. 8 depicts a graph of sulfated beta-cyclodextrin formed 1:1 complex with antioxidant quercetin, showing quercetin can be encapsulated in the gel. […] In the presence of sulfated beta-cyclodextrin, the absorbance increased. The sulfated beta-cyclodextrin can form 1:1 complex with quercetin through host-guest chemistry. […] Embedment of quercetin in hydrogel and its release: The sulfated beta-cyclodextrin in the crosslinked polymer hydrogel allows drug molecules, even hydrophobic compounds, to incorporate into it through host-guest interaction. An encapsulated-quercetin hydrogel film was prepared (FIG. 8). […] The high equilibrium binding constant of the sulfated β-cyclodextrin/quercetin complex (Kf=2.53×10^4 M^−1 at 25° C.) permits encapsulation of high concentration of quercetin in gel. The fabrication of the quercetin hydrogel is similar to that mentioned above, except for alternative sulfated beta-cyclodextrin with 1:1 sulfated beta-cyclodextrin/quercetin complex. The resultant hydrogel attained similar high fracture toughness and stretching ability in the presence of quercetin (FIG. 9).

[2] = 'as known'; cited from earlier work

In the case of `O=c1c(O)c(-c2ccc(O)c(O)c2)oc2cc(O)cc(O)c12` [quercetin], the solubility ([1]; in 1 mM sulfated beta-cyclodextrin) is listed as 42 µM (≈ 12.7 µg/mL), the solubility ([1]; in 2 mM sulfated beta-cyclodextrin) is listed as 73 µM (≈ 22.1 µg/mL) and the solubility in water [2] is listed as roughly 1.3 µM (≈ 0.393 µg/mL).
